Consider 38 molecules from ChEMBL document CHEMBL1201862, “PubChem BioAssay data set” (2004).

Activity calls are given as the source filed them. A value given as a limit tells only on which side of the number the result lay.

In test [1] the target is Cytochrome P450 3A4 (Homo sapiens, UniProt P08684).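 Also: CYP3A4 tested as one member of a cytochrome P450 panel screen.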
The target of test [2] is T1, Rac GTPase-activating protein 1 (Homo sapiens, UniProt Q9H0H5).
T1 sequence (Q9H0H5 whole entry): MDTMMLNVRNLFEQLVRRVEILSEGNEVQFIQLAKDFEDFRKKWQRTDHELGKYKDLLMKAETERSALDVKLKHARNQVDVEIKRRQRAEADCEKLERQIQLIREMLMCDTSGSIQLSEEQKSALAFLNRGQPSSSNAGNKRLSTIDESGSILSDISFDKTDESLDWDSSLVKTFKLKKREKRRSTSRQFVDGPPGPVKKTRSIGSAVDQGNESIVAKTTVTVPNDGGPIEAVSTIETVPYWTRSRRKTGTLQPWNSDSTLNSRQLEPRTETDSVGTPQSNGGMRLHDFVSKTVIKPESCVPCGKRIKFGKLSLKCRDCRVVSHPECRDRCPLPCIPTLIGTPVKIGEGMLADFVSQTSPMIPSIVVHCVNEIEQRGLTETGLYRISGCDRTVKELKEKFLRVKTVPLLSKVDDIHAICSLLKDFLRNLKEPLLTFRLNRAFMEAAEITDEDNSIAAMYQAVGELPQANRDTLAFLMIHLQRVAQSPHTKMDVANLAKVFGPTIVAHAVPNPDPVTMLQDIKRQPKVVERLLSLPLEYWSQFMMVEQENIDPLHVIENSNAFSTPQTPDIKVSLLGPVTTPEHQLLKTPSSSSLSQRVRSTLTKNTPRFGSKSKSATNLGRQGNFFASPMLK
Briefly: blockers of MgcRacGAP-driven Rac1 GTP hydrolysis – biochemical, ADP Hunter fluorescence, primary and confirmatory, confirmation (AID 624330). The format is functional.

In test [3] the target is T2, Polyadenylate-binding protein 1 (Homo sapiens, UniProt P11940). Briefly: MLLE binding blockers, Cy5 peptide tracer – biochemical, fluorescence polarization, Cy5-PAM2 peptide, secondary, miRNA deadenylation inhibitor project, dose response (AID 602260). The conditions noted are these: read-out: IC50_Mean. It counts as functional. Background: Polarisation of emitted light reports the rotation of a fluorescent probe.

Test [4] deals with T2, Polyadenylate-binding protein 1. Briefly: MLLE domain peptide-binding blockers, IC50 – biochemical, fluorescence polarization, FITC-PAM2 peptide, dose response (AID 602259). It counts as functional. The note with it: read-out: IC50_Mean.
The test system of test [5] is INS1. Briefly: INS-1E survival protection against cytokine death – cell-based, luminescence, retest, dose response (AID 449756).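 Also: cell death triggered by IL-1 beta plus TNF-alpha plus IFN-gamma mixture; protective hits raise ATP signal compared with cytokine alone wells.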 The format is functional. The note with it: Rattus norvegicus.
The target in test [6] is T3, Cytochrome P450 1A2 (Homo sapiens, UniProt P05177).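 Also: PubChem cytochrome P450 panel assay, CYP1A2 panel member.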
T3 sequence (P05177 whole entry): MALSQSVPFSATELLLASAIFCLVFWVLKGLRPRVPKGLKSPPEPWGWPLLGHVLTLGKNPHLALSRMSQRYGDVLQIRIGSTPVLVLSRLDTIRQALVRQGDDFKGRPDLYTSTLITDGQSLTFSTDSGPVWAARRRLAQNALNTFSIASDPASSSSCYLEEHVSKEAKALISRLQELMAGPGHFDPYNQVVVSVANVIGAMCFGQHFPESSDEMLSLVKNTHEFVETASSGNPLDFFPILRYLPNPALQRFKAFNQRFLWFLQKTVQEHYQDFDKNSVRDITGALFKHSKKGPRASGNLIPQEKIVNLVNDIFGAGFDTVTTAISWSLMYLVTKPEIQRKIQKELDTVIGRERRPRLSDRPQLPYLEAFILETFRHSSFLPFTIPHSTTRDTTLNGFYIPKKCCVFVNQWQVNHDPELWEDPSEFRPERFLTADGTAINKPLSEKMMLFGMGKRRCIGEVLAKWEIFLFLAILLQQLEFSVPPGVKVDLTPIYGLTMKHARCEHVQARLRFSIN

In test [7] the test system is Streptococcus sp. 'group A'. Put plainly: Streptococcus pyogenes SK(-)GAS viability under kanamycin – luminescence, BacTiterGlo, confirmation, counter-screen for streptokinase expression inhibitor project, dose response (AID 1900). The format is functional, organism-based. (In general: The purpose of a counterscreen is to sort out artefacts and off-target activity.)

Test [8] addresses T4, Streptokinase A (Streptococcus pyogenes serotype M1, UniProt P10520).
T4 sequence (P10520 whole entry): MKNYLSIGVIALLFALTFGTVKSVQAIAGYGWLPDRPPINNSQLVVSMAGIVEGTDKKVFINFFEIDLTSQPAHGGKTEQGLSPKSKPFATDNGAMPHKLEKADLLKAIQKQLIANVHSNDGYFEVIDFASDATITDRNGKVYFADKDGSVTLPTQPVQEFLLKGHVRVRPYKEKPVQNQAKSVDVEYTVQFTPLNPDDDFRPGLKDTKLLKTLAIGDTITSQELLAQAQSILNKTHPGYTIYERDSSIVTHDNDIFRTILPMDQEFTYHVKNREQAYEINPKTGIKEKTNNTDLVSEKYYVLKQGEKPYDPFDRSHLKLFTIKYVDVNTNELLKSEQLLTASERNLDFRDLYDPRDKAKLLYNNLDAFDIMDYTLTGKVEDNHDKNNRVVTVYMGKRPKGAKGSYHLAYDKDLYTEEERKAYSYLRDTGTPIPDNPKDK
Briefly: viability-normalized secreted streptokinase activity reduction – plasminogen activation absorbance, OD405, dose response (AID 1914).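 Also: secreted streptokinase activity via plasminogen activation per viability signal from cell pellet.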 It counts as functional, Streptococcus pyogenes M1 GAS.

For test [9], the system named is Streptococcus. Briefly: GAS UMAA2166 growth inhibition – luminescence, BacTiterGlo, counter-screen for streptokinase expression inhibitor project, dose response (AID 1915).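 Also: potency for reduction of bacterial viability or growth.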 It counts as functional, organism-based.
Test [10] addresses Cytochrome P450 2C19 (Homo sapiens, UniProt P33261). Briefly: Cytochrome panel assay with activity outcomes. Panel member name: p450-cyp2c19 Compounds with AC50 equal or less than 10 uM are considered active. The format is functional. The note with it: read-out: AC50.
Test [11] in a line: Luminescence Cell-Based Dose Retest to Confirm Inhibitors of Cancer Stem Cells. [Related pubchem assays (depositor defined):AID2717, AID2721]. The format is functional. The conditions noted are these: Homo sapiens.
The nature of test [12]: Luminescence Cell-Based Dose Confirmation HTS to Identify Activators of 5'UTR Stem-Loop Driven Alpha-Synuclein mRNA Translation in H4 Neuroglioblastoma Cells. [Related pubchem assays: 1829 (Project Summary), 1814 (Primary HTS)]. It counts as functional.
Test [13] in a line: Luminescence Cell-Based Dose Response HTS to Identify Activators of Luciferase Translation or Activity in H4 […] Cells. [Related pubchem assays: 1829 (Project Summary), 1814 (Primary HTS)]. The format is functional.
Test [14] concerns H4. Put plainly: Luminescence Cell-Based Dose Response HTS to Identify Activators of 5'UTR Stem-Loop Driven Prion Protein mRNA Translation in H4 Neuroglioblastoma Cells. [Related pubchem assays: 1829 (Project Summary), 1814 (Primary HTS)]. The conditions noted are these: Homo sapiens. It counts as functional.

Cytochrome P450 2C19, sequence (P33261 whole entry): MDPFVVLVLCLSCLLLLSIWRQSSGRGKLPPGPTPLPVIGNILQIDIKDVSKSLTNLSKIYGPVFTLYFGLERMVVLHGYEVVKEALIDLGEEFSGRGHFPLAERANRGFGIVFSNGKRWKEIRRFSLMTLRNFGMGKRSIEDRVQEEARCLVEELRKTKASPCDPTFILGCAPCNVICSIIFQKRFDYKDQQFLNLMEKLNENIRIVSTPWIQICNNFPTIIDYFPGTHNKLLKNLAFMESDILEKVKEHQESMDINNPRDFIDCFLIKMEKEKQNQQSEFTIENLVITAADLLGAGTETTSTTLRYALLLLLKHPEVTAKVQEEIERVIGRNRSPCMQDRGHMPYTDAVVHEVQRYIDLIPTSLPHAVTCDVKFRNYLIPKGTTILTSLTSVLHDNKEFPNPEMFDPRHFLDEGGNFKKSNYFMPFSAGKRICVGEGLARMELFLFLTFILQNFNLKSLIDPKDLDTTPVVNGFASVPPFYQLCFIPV
Cytochrome P450 3A4, sequence (P08684 whole entry): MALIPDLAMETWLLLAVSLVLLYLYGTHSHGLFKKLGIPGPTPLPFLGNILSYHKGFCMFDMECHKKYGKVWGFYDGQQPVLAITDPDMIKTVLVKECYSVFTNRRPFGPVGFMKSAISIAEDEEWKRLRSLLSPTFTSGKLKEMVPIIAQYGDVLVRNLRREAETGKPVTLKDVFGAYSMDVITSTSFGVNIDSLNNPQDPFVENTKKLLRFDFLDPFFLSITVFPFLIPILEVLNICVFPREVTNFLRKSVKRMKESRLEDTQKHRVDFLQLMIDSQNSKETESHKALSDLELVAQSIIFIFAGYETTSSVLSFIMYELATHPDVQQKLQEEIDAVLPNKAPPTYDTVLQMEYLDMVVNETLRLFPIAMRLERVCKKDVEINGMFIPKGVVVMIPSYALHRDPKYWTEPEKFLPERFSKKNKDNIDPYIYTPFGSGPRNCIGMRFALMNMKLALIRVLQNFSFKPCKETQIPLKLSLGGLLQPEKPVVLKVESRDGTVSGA
T2 sequence (P11940 whole entry): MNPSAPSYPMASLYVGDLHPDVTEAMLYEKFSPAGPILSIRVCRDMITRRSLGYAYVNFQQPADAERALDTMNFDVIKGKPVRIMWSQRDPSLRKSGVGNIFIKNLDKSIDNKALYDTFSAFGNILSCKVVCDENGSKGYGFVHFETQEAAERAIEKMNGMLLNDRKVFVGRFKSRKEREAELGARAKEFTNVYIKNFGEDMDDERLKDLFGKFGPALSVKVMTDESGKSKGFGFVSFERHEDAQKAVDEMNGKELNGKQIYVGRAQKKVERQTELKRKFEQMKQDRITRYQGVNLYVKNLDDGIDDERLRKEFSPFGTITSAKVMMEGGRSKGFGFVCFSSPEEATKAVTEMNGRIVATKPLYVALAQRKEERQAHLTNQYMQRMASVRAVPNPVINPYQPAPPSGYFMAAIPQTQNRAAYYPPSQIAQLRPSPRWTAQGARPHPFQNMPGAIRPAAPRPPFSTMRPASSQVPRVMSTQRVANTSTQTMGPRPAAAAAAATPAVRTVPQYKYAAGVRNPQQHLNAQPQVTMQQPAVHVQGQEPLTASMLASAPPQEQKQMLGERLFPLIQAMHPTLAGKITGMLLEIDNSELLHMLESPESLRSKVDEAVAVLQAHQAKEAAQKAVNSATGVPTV

Regarding `N#C/C(=C\c1ccc(O)c(O)c1)C(=O)OCCc1cccs1`, in test [1], the AC50 is 20 µM (inconclusive). On to `Cc1ccc(NC(S)=Nc2ccc(Br)cc2)cc1`, for which the AC50 in test [1] was 14.1 µM (inconclusive). With `COc1cc(CN2CCC(C(=O)N3CCCC(C)C3)CC2)cc(Br)c1O` (stereo not given), the IC50 in [2] was 191 µM (active). Turning to `CN(C(=O)CCN1C(=O)/C(=C/c2ccccc2F)SC1=S)C1CCS(=O)(=O)C1` (stereo not given), the IC50 in test [3] and in test [4] was > 66 µM (inactive) throughout.

For `Cc1nnc(N/N=C/c2cc([N+](=O)[O-])c(N3CCC(C)CC3)cc2N2CCC(C)CC2)n1N`, in test [5], the AC50 was 2.92 µM (active). For the molecule `O=c1c(-c2ccc(F)cc2)nc2cnc(Nc3ccccc3)nc2n1C[C@H]1CCCO1`, the AC50 was 2 µM (inconclusive) in [6] and 12.6 µM (inconclusive) in test [1].

Regarding `Nc1cc(Br)c(N)c(Br)c1`, the IC50 in test [2] was 13.5 µM (active).

Turning to `C/C(=N\NC(=S)Nc1cccc(C)c1)c1cc2ccccc2o1`, the EC50 in test [7] is 3.44 µM (active); in test [8] it was > 150 µM (not active); in [9] it was > 150 µM (not active). Further, the IC50 in [3] and in test [4] was > 66 µM (inactive) in each case. Regarding `O=C(CCNC(=O)c1ccccc1)OCN1C(=O)c2ccccc2C1=O`, the AC50 in test [10] is 39.8 µM (inconclusive); in test [1] it was 15.8 µM (inconclusive). For the molecule `Cc1ccc2cc(C=C(C#N)C#N)c(Cl)nc2c1`, the IC50 in test [3] was 44.8 µM (inactive); in test [4], 28 µM (inactive). Regarding `COc1ccc(CCNC(=O)c2sc(=S)n(C)c2N)cc1`, the IC50 in [3] and in test [4] was > 66 µM (inactive) in each case. With `Cc1nc(N)sc1-c1ccccc1`, in [2], the IC50 was 71.9 µM (active). As for `CCOc1cc(NC(=O)c2ccc(OC)cc2)c(OCC)cc1N=C(S)Nc1ccccc1`, the AC50 is 2.51 µM (inconclusive) in test [10], 7.08 µM (inconclusive) in test [6] and 14.1 µM (inconclusive) in [1]. Turning to `COc1ccc(COC(=O)N/N=C2/C[C@@H](O)[C@@H](O)[C@@H]3[C@H]4C(=O)N(c5ccc(F)cc5F)C(=O)[C@@H]4CC[C@@H]23)cc1`, the AC50 in test [1] is 3.16 µM (inconclusive). `Cc1cnc(CNc2cc(-c3cccnc3)ncn2)cn1`: the AC50 in test [6] and in test [1] was 15.8 µM (inconclusive) throughout.

As for `Cc1noc(C)c1-c1cc(Nc2ccc(F)cc2)ncn1`, the AC50 is 39.8 µM (inconclusive) in [10] and 20 µM (inconclusive) in [1]. As for `O=c1c(-c2cccc(F)c2)nc2cncnc2n1Cc1ccccc1Cl`, the AC50 in test [1] was 15.8 µM (inconclusive). `COC(=O)c1ccc2ccn(CC(=O)NC3CCCCC3)c2c1`: the AC50 in [1] is 4.47 µM (inconclusive). On to `Cn1c(=O)[nH]c(=O)c2c1nc(S)n2Cc1ccccc1`, for which the IC50 in [2] is 26.9 µM (active).

For the molecule `CCOCCCN=C(S)N1CCN(Cc2ccc3c(c2)OCO3)CC1`, the IC50 in [2] was 152 µM (active). On to `O=C(CCN1CCC2CCC(C2)C1)c1ccccc1` (stereo not given), for which the IC50 in test [3] and in test [4] was > 66 µM (inactive) in each case. `Cc1cccc(NC2=C/C(=N/S(=O)(=O)c3cccs3)c3ccccc3C2=O)c1`: the AC50 was 835 nM (active) in test [11] and 0.803 µM (active) in test [5]. Regarding `Cc1ccc(C(C)C)c(OCC(O)CN2CCc3ccccc3C2)c1` (stereo not given), the AC50 in test [5] is 7.17 µM (active). Take `CCNc1ncc2nc(C)c(=O)n(Cc3ccc(F)cc3)c2n1`: the AC50 in test [10] is 6.31 µM (inconclusive); in test [1] it was 7.94 µM (inconclusive). For `C/C(=N\NC(=O)CSc1[nH]c(C)nc1[N+](=O)[O-])c1ccc(F)cc1`, the EC50 in [12] is 15 µM (active); in test [13] it was 14.3 µM (active); in [7], > 150 µM (not active); in test [14], 97.5 µM (active); in test [8], > 150 µM (not active); in test [9], > 150 µM (not active). `Cc1cc(C)nc(SCNC(=O)c2ccccc2)n1`: the IC50 in test [3] and in test [4] was > 66 µM (inactive) throughout. As for `CN(C)c1ccc(NC(=O)COC(=O)c2ccc3c(c2)OCO3)cc1`, the IC50 in test [2] was 63.3 µM (active). Turning to `Cc1ccc(-c2ccc(/C=N/NC(=S)Nc3ccccc3)o2)cc1[N+](=O)[O-]`, the IC50 in [3] and in [4] was > 66 µM (inactive) each time. Also, the AC50 in test [6] is 3.55 µM (inconclusive).

Take `Cc1cc(Cl)ccc1N=C(S)NC(C)(C)C`: the IC50 in test [3] and in test [4] was > 66 µM (inactive) throughout. As to `O=C(O)CCCC(=O)Nc1ccc(C(=O)NCc2cccnc2)cc1`, the AC50 in [5] is 2.39 µM (active). `CCc1c(C(=O)OC)ncc2[nH]c3cc(OC)c(OC)cc3c12`: the AC50 in test [1] is 15.8 µM (inconclusive).

In the case of `COc1ccc2cc(C(c3nnnn3C3CCCC3)N3CCc4ccccc4C3)c(O)nc2c1` (stereo not given), the IC50 in test [3] and in test [4] was > 66 µM (inactive) in each case. `COc1ccccc1NC(=O)Cc1csc(N=C(S)Nc2ccccc2)n1`: the IC50 in test [3] and in [4] was > 66 µM (inactive) throughout. For the molecule `COc1ccc(-n2c(=O)c(-c3cccs3)nc3cnc(N4CCN(C)CC4)nc32)cc1`, the AC50 in test [6] was 2.51 µM (inconclusive); in test [1], 25.1 µM (inconclusive). As for `Clc1ccc(COn2ccnc2)cc1Cl`, the EC50 in [12], in test [13] and in test [14] was > 120 µM (not active) each time. Consider `CC(C)[C@H](N[C@@H](C)c1ccccc1)c1c(O)ccc2ccccc12`, for which, in test [2], the IC50 was 16.8 µM (active). Turning to `Cn1c(S)nnc1CCCOc1ccc(Cl)cc1Cl`, the results for the EC50 in [12], in test [13] and in [14] were > 120 µM (not active), 22.5 µM (active) and 7.51 µM (active), respectively. As for `O=C(NC1CCCC1)c1cc(COc2ccc3ncccc3c2)on1`, the half-maximal activity concentration (AC50) in test [5] was 3.29 µM (active).

One may read the AC50 as the concentration at which the activity in the assay is half-maximal. The EC50 is the midpoint of the concentration-response curve.
